Common to all, as to format: cell-based
In experiment [1] the test system is HCT116 (human colon cancer cell). The experiment in a line: MTT in vitro cytotoxicity, HCT116. The conditions noted are these: HCT-116, 72 hr incubation. On the procedure: (§1) Materials and methods: MTT (3-[4,5-dimethylthiazol-2-yl]-diphenyl tetrazolium bromide) method was employed to determine the antiproliferative activity of all the compounds of the Examples and Contrasting Examples in vitro against selected cell lines, including HCT116 (human colon cancer cell), PC-3 (human prostate cancer), HepG2 (human hepatocellular carcinoma), SK-OV-3 (human ovarian adenocarcinoma), MCF-7 (human breast cancer), U87MG (human glioblastoma cell) cell lines.
(§2) Procedure: Human tumor cells of HCT116, PC-3, HepG2, SK-OV-3, MCF-7, and U87MG were in vitro cultured, and collected until the cells grow to the logarithmic phase. The cells were centrifuged for 5 minutes at 1000 rpm, and supernatant was discarded. Subsequently appropriate culture medium was added to suspend the precipitation, and the concentration of cells was adjusted to 3.5˜5.5×10^4/mL. the suspensions of cells were seeded in 96-well microplate at 100 μL per well, and incubated in incubator (37° C., 5% CO2) for 24 hr. The compound to test was added. For the control group, equivalent concentration of DMSO (final concentration 0.5%) was added. For each group, three copy wells were set. After incubated for 72 hr, 20 μL 5 mg/mL of MTT was added into each well, and placed at 37° C. for 3 hr. 150 μL of DMSO was added into each wells, and vibrated the shaker at 37° C. for 5 mins, then measured the absorbance (OD) value at 492 nm/620 nm. The IC50 values were calculated using Prism 5.0 software.

In experiment [2] the test system is MCF-7 (human breast cancer). The experiment in a line: MTT in vitro cytotoxicity, MCF-7. The note with it: MCF7, 72 hr incubation. The method, then:
as §1, §2

Experiment [3] deals with HepG2 (human hepatocellular carcinoma). The experiment in a line: MTT in vitro cytotoxicity, HepG2. The note with it: 72 hr incubation. On the procedure: as §1, §2

On to `CN(C)CCN1C(=O)c2c3cc(Br)ccc3nc3cccc1c23` [Compound 7a, 9-bromo-2-(2-(dimethylamino)ethyl)pyrrolo[2,3,4-kl]acridin-1-(2H)-one], for which the IC50 in experiment [1] was found to be 1.87 µM; in experiment [2], 1.97 µM; in experiment [3], 1.85 µM.
The matching figures for `CN(C)CCCN1C(=O)c2c3cc(Br)ccc3nc3cccc1c23` [Compound 7b, 9-bromo-2-(3-(dimethylamino)propyl)pyrrolo[2,3,4-kl]acridin-1-(2H)-one]: 2.27 µM, 2.15 µM and 3.84 µM.
For `CN(C)CCCN1C(=O)c2c3cc(I)ccc3nc3cccc1c23` [Compound 7d, 2-(3-(dimethylamino)propyl)-9-iodopyrrolo[2,3,4-kl]acridin-1-(2H)-one], in that order: 2.64 µM, 2.8 µM and 3.78 µM.

Values taken from patent US9643968B2, “Fused acridine derivative and pharmaceutical composition, preparation method and use thereof” (Peking University, priority 2014, dated 2017).
